Experimental data reported in paper PMC8802806, “Synthesis and Antitumor Activity of Erlotinib Derivatives Linked With 1,2,3-Triazole” (Frontiers in Pharmacology, 2022).
Read-outs that look alike come from different tables or passages of the source.

Tests used:
HeLa cells = experiment: Cell antiproliferative activity assay (CCK8); format: cell-based, human; details: for inhibition at 0.25 µM: 250 nM; for inhibition at 0.5 µM: 500 nM; for inhibition at 1 µM: 1000 nM; for inhibition at 2 µM: 2000 nM; for inhibition at 4 µM: 4000 nM; for inhibition at 8 µM: 8000 nM; for inhibition at 16 µM: 16000 nM
Method: Cell antiproliferative activity was evaluated by the Cell Counting Kit-8 (CCK8, DOJINDO, Japan) assay. The cells were seeded at a density of 2,000 cells per well into 96-well microplate in 100 μl of growth medium. Cells were incubated at 37°C and 5% CO2 overnight. The next day, 100 μl per well of diluted inhibitor in growth medium was added with the final concentration from 0.1 nM to 100 μM. The cells were treated with DMSO as control. A series of dilutions are made in 0.1% DMSO in assay medium so that the final concentration of DMSO is 0.1% in all of treatments. Cells were incubated at 37°C and 5% CO2 for 48 h. Then, 10 μl of CCK8 was added to each well. The plates were incubated at 37°C for 2 h; after that, the plates were recorded by measuring absorbance at 450 nm with the reference wavelength of 630 nm using an EnVision Multilabel Reader (PerkinElmer). The IC50 values were calculated using GraphPad Prism 6.0 software and determined by the concentration causing a half-maximal percent activity. All assays were conducted with three parallel samples and three repetitions.

[1] = Homo sapiens, HeLa, 48 h, HeLa cells, CCK8, 48 h, mean ± SD, n = 3, read-out: IC50 (μM) HeLa
[2] = Homo sapiens, HELA 2000cells/well, Repeat1, read-out: Inhibition (%) Repeat1
[3] = Homo sapiens, HELA 2000cells/well, Repeat2, read-out: Inhibition (%) Repeat2
[4] = Homo sapiens, HeLa, HELA 2000cells/well, supplement DataSheet2, Repeat1, read-out: IC50 Repeat1
[5] = Homo sapiens, HeLa, HELA 2000cells/well, supplement DataSheet2, Repeat 2, read-out: IC50 Repeat 2
[6] = Homo sapiens, HeLa, HELA 2000cells/well, supplement DataSheet2, mean of two repeats ± SD, read-out: IC50 mean±SD

SMILES | IC50 (HeLa cells; [1]) [µM] | inhibition at 0.25 µM (HeLa cells; [2]) [%] | inhibition at 0.25 µM (HeLa cells; [3]) [%] | inhibition at 0.5 µM (HeLa cells; [2]) [%] | inhibition at 0.5 µM (HeLa cells; [3]) [%] | inhibition at 1 µM (HeLa cells; [2]) [%] | inhibition at 1 µM (HeLa cells; [3]) [%] | inhibition at 2 µM (HeLa cells; [2]) [%] | inhibition at 2 µM (HeLa cells; [3]) [%] | inhibition at 4 µM (HeLa cells; [2]) [%] | inhibition at 4 µM (HeLa cells; [3]) [%] | inhibition at 8 µM (HeLa cells; [2]) [%] | inhibition at 8 µM (HeLa cells; [3]) [%] | inhibition at 16 µM (HeLa cells; [2]) [%] | inhibition at 16 µM (HeLa cells; [3]) [%] | melting point [°C] | IC50 (HeLa cells; [4]) [µM] | IC50 (HeLa cells; [5]) [µM] | IC50 (HeLa cells; [6]) [µM] | also measured
COCCOc1cc2ncnc(Nc3cccc(-c4cn(Cc5ccccc5)nn4)c3)c2cc1OCCOC [Compound 4a, [3-(1-Benzyl-1H-[1,2,3]triazol-4-yl)-phenyl]-[6,7-bis-(2-methoxy-ethoxy)-quinazolin-4-yl]-amine] | > 50 | 0 | 4.4 | 8.2 | 5.61 | 8.54 | 6.73 | 8.54 | 6.73 | 12.1 | 12.1 | 12.5 | 13.8 | 16.3 | 15.5 | 89 to 92 |  |  |  | 
COCCOc1cc2ncnc(Nc3cccc(-c4cn(Cc5ccccc5I)nn4)c3)c2cc1OCCOC [Compound 4b, [6,7-Bis-(2-methoxy-ethoxy)-quinazolin-4-yl]-{3-[1-(2-iodo-benzyl)-1H-[1,2,3]triazol-4-yl]-phenyl}-amine] | 11.5 ± 1.69 | 8.56 | 0 | 12.5 | 0 | 13.3 | 3.42 | 17.6 | 7.96 | 37.8 | 28.2 | 52 | 40.8 | 54.8 | 51.1 | 93 to 96 | 9.72 | 13.1 | 11.5 ± 1.69 | 
COCCOc1cc2ncnc(Nc3cccc(-c4cn(Cc5ccccc5Br)nn4)c3)c2cc1OCCOC [Compound 4c, [6,7-Bis-(2-methoxy-ethoxy)-quinazolin-4-yl]-{3-[1-(2-bromo-benzyl)-1H-[1,2,3]triazol-4-yl]-phenyl}-amine] | 21.3 ± 7.79 | 2.33 | 0 | 4.15 | 1.82 | 4.75 | 2.33 | 15.8 | 9.94 | 35.6 | 21.3 | 42.4 | 29.7 | 45 | 34.1 | 94 to 97 | 14.8 | 30.4 |  | 
COCCOc1cc2ncnc(Nc3cccc(-c4cn(-c5cccc(OC)c5)nn4)c3)c2cc1OCCOC [Compound 4e, [6,7-Bis-(2-methoxy-ethoxy)-quinazolin-4-yl]-{3-[1-(3-methoxy-phenyl)-1H-[1,2,3]triazol-4-yl]-phenyl}-amine] | > 50 | 0.801 | 0 | 4.97 | 2.08 | 7.13 | 3.04 | 14.1 | 5.45 | 15 | 13.5 | 16.5 | 15.1 | 18.2 | 15.9 |  |  |  |  | 
COCCOc1cc2ncnc(Nc3cccc(-c4cn(-c5ccccc5F)nn4)c3)c2cc1OCCOC [Compound 4f, [6,7-Bis-(2-methoxy-ethoxy)-quinazolin-4-yl]-{3-[1-(2-fluoro-phenyl)-1H-[1,2,3]triazol-4-yl]-phenyl}-amine] | 30.7 ± 1.83 | 2.17 | 0 | 2.51 | 0.418 | 3.51 | 0.502 | 4.77 | 2.17 | 8.86 | 3.18 | 29.8 | 23.1 | 31.1 | 30.4 | 83 to 86 | 32.4 | 28.7 | 30.7 ± 1.83 | 
COCCOc1cc2ncnc(Nc3cccc(-c4cn(-c5ccc(F)cc5)nn4)c3)c2cc1OCCOC [Compound 4g, [6,7-Bis-(2-methoxy-ethoxy)-quinazolin-4-yl]-{3-[1-(4-fluoro-phenyl)-1H-[1,2,3]triazol-4-yl]-phenyl}-amine] | 9.05 ± 0.53 | 0 | 2.88 | 0.279 | 5.02 | 2.88 | 5.02 | 20.6 | 17.7 | 37.5 | 38.5 | 51.1 | 50.1 | 59.4 | 54.7 | 88 to 91 | 8.57 | 9.64 | 9.06 ± 0.531 | 
COCCOc1cc2ncnc(Nc3cccc(-c4cn(-c5ccccc5Cl)nn4)c3)c2cc1OCCOC [Compound 4h, [6,7-Bis-(2-methoxy-ethoxy)-quinazolin-4-yl]-{3-[1-(2-chloro-phenyl)-1H-[1,2,3]triazol-4-yl]-phenyl}-amine] | 8.85 ± 0.56 | 0 | 1.75 | 7.08 | 3.15 | 7.26 | 6.12 | 13.4 | 11.2 | 31.3 | 29.2 | 54.3 | 51.4 | 63.2 | 59.4 | 131 to 134 | 8.32 | 9.44 | 8.86 ± 0.559 | 
COCCOc1cc2ncnc(Nc3cccc(-c4cn(-c5ccccc5Br)nn4)c3)c2cc1OCCOC [Compound 4i, [6,7-Bis-(2-methoxy-ethoxy)-quinazolin-4-yl]-{3-[1-(2-bromo-phenyl)-1H-[1,2,3]triazol-4-yl]-phenyl}-amine] | 4.16 | 2.62 | 0 | 6.42 | 5.74 | 9.04 | 6.59 | 15.2 | 17.7 | 41.6 | 42.6 | 83.4 | 83.9 | 88.1 | 88.9 | 93 to 97 | 4.41 | 4.3 | 4.36 ± 0.054 | IC50 (HeLa cells; HeLa cells, CCK8, 48 h, mean ± SD, n = 3, read-out: IC50 (μM) HeLa): 4.36 ± 0.15 µM
COCCOc1cc2ncnc(Nc3cccc(-c4cn(-c5ccc(Br)cc5)nn4)c3)c2cc1OCCOC [Compound 4j, [6,7-Bis-(2-methoxy-ethoxy)-quinazolin-4-yl]-{3-[1-(4-bromo-phenyl)-1H-[1,2,3]triazol-4-yl]-phenyl}-amine] | 12.2 ± 1 | 0 | 2.88 | 0.0873 | 2.97 | 0.96 | 4.36 | 4.01 | 4.89 | 8.03 | 8.64 | 26.2 | 17.7 | 73.6 | 63.3 | 105 to 108 | 11.3 | 13.3 | 12.2 ± 1.01 | 
C#Cc1cccc(Nc2ncnc3cc(OCCOC)c(OCCOC)cc23)c1 [Erlotinib, erlotinib] |  |  |  |  |  |  |  |  |  |  |  |  |  |  |  |  |  |  |  | IC50 (HeLa cells; Homo sapiens, HeLa cells, CCK8, 48 h, mean ± SD, n = 3, read-out: IC50 (μM) HeLa): 39.5 ± 3.34 µM
